The values below are quoted from earlier work in patent US20110311631A1, “CONTROLLED RELEASE PHARMACEUTICAL COMPOSITION WITH RESISTANCE AGAINST THE INFLUENCE OF ETHANOL EMPLOYING A COATING COMPRISING A POLYMER MIXTURE AND EXCIPIENTS” (EVONIK RÖHM GMBH, priority 2009, published 2011).

SMILES strings stand for the structures. Where a name gives a salt, the structure may show the parent alone. Read-outs that look alike come from different tables or passages of the source.

For the data set the following is noted: USP classification, between 15° C. and 25° C.

With `NC(=O)N1c2ccccc2C=Cc2ccccc21` [Carbamazepine], the Solubility in ethanol entry is listed as “Soluble (more than 10 to 30)” and the Solubility in water entry was “Practically insoluble (more than 10.000)”.

For the compound `COc1ccc([C@@H]2Sc3ccccc3N(CCN(C)C)C(=O)[C@@H]2OC(C)=O)cc1` [Diltiazem HCl], the Solubility in water result is reported as “Freely soluble (from 1 to 10)”. In addition, the Solubility in ethanol entry (HCl) was “Sparingly soluble (more than 30 to 100)”. Where the note is “listed as diltiazem, HCl”, the Solubility in ethanol result is “sparingly soluble”.

For `COCCc1ccc(OCC(O)CNC(C)C)cc1` (centres unmarked) [Metoprolol succinate], the Solubility in ethanol result is given as “Sparingly soluble (more than 30 to 100)” and the Solubility in water result is “Freely soluble (from 1 to 10)”. Moreover, the Solubility in ethanol entry (listed as metoprolol) is “sparingly soluble”.

As to `C=CCN1CC[C@]23c4c5ccc(O)c4O[C@H]2C(=O)CC[C@@]3(O)[C@H]1C5` [Naloxone], the Solubility in ethanol result is “Slightly soluble (more than 100 to 1000)” and the Solubility in water entry was “Soluble (more than 10 to 30)”. Also, the Solubility in ethanol entry (listed as naloxone) is on record as “slightly soluble”.

As to `Cn1c(=O)c2[nH]cnc2n(C)c1=O` [Theophylline], the Solubility in ethanol result is “Sparingly soluble (more than 30 to 100)” and the Solubility in water entry is “Slightly soluble (more than 100 to 1000)”. Moreover, the Solubility in ethanol result (listed as theophyllin) is “sparingly soluble”.
